Experiments:
[1] = system: KATO III cells; test: Transwell migration and invasion assay; type: cell-based; conditions: 100 nM, 24 h
Experimental: (§1) In the migration assay, 1×10^5 cells were resuspended in a serum-free medium, then added into the upper chamber, meanwhile the medium containing 10% FBS was added at the bottom with 100 nM RK-019. After 24 h incubation, the migration cells on the filters were fixed with 4% paraformldehyde and washed with PBS, then stained with crystal violet solution for 20 min. In the invasion assay, the upper surface of the transwell was coated with Matrigel (356234, Corning) for 30 min at 37°C until Matrigel was solidified. 1×10^5 cells were resuspended in a serum-free medium, then added into the upper chamber, meanwhile the medium containing 10% FBS was added at the bottom with 100 nM RK-019.After 24 h , the invasion cells on the filters were hatched and fixed, then stained with crystal violet.

[2] = system: SNU-16 cells; test: Transwell migration and invasion assay; type: cell-based; conditions: SNU-16, 100 nM, 24 h
Experimental: as §1

[3] = system: FGFR2 phosphorylation and downstream proteins in SNU-16 cells; test: Western blot of FGFR signal proteins; type: cell-based
Experimental: (§2) The cells treated with RK-019 at indicated concentration for 24 h were harvested and lysed in 1× RIPA buffer (20e188, MilliporeSigma, Burlington, MA, United States), which contained protease inhibitor cocktail (B14001, Bimake, Houston, TX, United States) and phosphatase inhibitor cocktail (B15001, Bimake), for 30 min and equalized by concentration of the total protein before loading. Using sodium dodecyl sulphate - polyacrylamide gel electrophoresis (SDS-PAGE) to separate the protein sample and transfer to PVDF membranes (ISEQ00010, MilliporeSigma). The membranes were incubated with relevant primary antibody and corresponding HRP-labeled secondary antibody. Then, chemiluminescence was used to detect target bands. ImageJ software were used to make the gradation analysis.
(§3) In western blot, results analysis of relative phosphorylation quantification level, data were firstly calculated according to the following formular: Protein Relative phosphorylation data = Gp/Gup. Gp means the gradation level of target phosphorylation protein band and Gup means the gradation level of target total protein band. Then, the relative phosphorylation level can be calculated by the following formular: Protein Relative expression level = Pt/Pc ×100%. Pt means the relative phosphorylation data or target group and Pc means the relative phosphorylation data of control group.

[4] = system: FGFR2 phosphorylation and downstream proteins in KATO III cells; test: Western blot of FGFR signal proteins; type: cell-based; conditions: 24 h
Experimental: as §2, §3

[5] = Preliminary toxicity in the xenograft mice model; type: in vivo, NOD/SCID mice
Experimental: NOD/SCID mice (6-week-old, weight 18–20 g, Beijing HJF bioscience) were used in this experiment and maintained in a specific-pathogen-free (SPF) condition facility. SNU-16 Cells were resuspended in PBS mixed with Matrigel (1:1) and adjust the density to 1×10^7 per mice (100 μL). The cell suspensions were inoculated subcutaneously on the right flank of the mice. When the mean tumor volume reached approximately 200 mm^3, the mice were divided into four groups (five mice each group): i. Vehicle group, ii. RK-019 15 mg/kg group, iii. RK-019 30 mg/kg group, and iv. RK-019 45 mg/kg group. RK-019 was dissolved in same formula as the in vivo PK study. RK-019 was administrated once per day by oral gavage for 21 days. Tumor volumes were measured three times per week. The tumor volume was measured by a caliper and calculated according to the following formula: Tumor volume=Major axis×Miner axis^2/2.
At the end of administration, the mice were executed euthanasia, then tumors, blood, and organs were extracted. The complete blood count (CBC), serum phosphorus analysis, and blood biochemical analysis were completed by West China Frontier Pharma Tech (Chengdu, China). The pathological section and IHC stanning was completed by Servicebio (Wuhan, China). The tumor growth inhibition (TGI) values were calculated with the following formula: TGI=(1−Tn−T0/Cn−C0)×100%.

[6] = system: KATO III cells; test: Edu staining assay; type: cell-based; conditions: 100 nM, 24 h
Experimental: (§4) For Edu staining assay, 1×10^5 cells were seeded in 24-well plates. RK-019 and DMSO were treated as soon as the cells seeded into the plates. After 24 h, the cells were incubated with the medium contained 10 µM Edu for 2 h. After that, the cells were collected and fixated to slide, and then stained with the Cell-Light EdU Apollo488 In Vitro Kit (C10310, Ribobio, Guangzhou, China). After staining, the samples were photographed and analyzed by the ImageJ software (v1.53a, Wayne Rasband, United States).

[7] = system: SNU-16 cells; test: Edu staining assay; type: cell-based; conditions: SNU-16, 100 nM, 24 h
Experimental: as §4

[8] = system: KATO III cells; test: Cell counting assay (trypan blue); type: cell-based; conditions: KATO III, 5, 10, and 100 nM, 9 days
Experimental: (§5) SNU-16 and KATO III were seeded in 6-well plated with 1×10^5 per well. RK-019 was treated as soon as the cells seeded in the 6-well plates. After indicated time, the images were captured using an inverted microscope. Then, the cells in the captured well were resuspended and live cell numbers were determined by the trypan blue (BL627A, Biosharp, Hefei, China) method.

[9] = system: SNU-16 cells; test: Cell counting assay (trypan blue); type: cell-based; conditions: SNU-16, 10 and 100 nM, 9 days
Experimental: as §5

[10] = In vivo PK assay; set-up: species or system Sprague-Dawley rats; conditions: rats
Experimental: All animal experiments in this study have been approved by the Institutional Animal Care and Treatment Committee of Sichuan University in China and were carried out in accordance with the approved guidelines. Sprague-Dawley rats (weight 180–200 g, Beijing HJF bioscience, Beijing, China) were used in this experiment and maintained in a specific-pathogen-free (SPF) condition facility. RK-019 was dissolve in ethanol first, followed by mixed with Kolliphor EL, then filled with saline to the calculated volume. The formula was 12.5% ethanol, 12.5% Kolliphor EL, and 75% saline. RK-019 was administrated via i. v. 3 mg/kg or p. o. 30 mg/kg. After 5, 10, 15, 30, 60, 120, 240, 360, 600, and 1,440 min of administration, the blood samples were collected. Plasma fraction was obtained by centrifuged blood, then deproteinized with methanol containing an internal standard. The compound concentrations of the target compound in the supernatant were measured by liquid chromatography–mass spectrometry/mass spectrometry (LC-MS/MS).

[11] = Sprague-Dawley, rat, plasma, iv, 3 mg/kg i.v
[12] = Sprague-Dawley, rat, plasma, po, 30 mg/kg p.o

SMILES: COc1cc(OC)cc(N(CCN[C@H](C)CO)c2ccc3ncc(-c4cnn(C)c4)c(=O)n3c2)c1 [RK-019, (R)-7-((3,5-dimethoxyphenyl) (2-((1-hydroxypropan-2-yl)amino)ethyl)amino)-3-(1-methyl-1H-pyrazol-4-yl)-4H-pyrido [1,2-a]pyrimidin-4-one]
- migration and invasion ability [1]: significantly suppress
- migration and invasion ability [2]: significantly suppress
- protein expression level of phosphorylated FGFR2 T653/T654 ([3]; SNU-16, 0.1, 1, 5, 10, and 100 nM, 24 h): decreased
- AKT and Erk phosphorylation levels ([3]; SNU-16, 24 h): decreased
- FRS2 and PLCγ phosphorylation levels ([3]; SNU-16, 24 h): significantly decreased
- protein expression level of phosphorylated FGFR2 T653/T654 ([4]; KATO III, 0.1, 1, 5, 10, and 100 nM): decreased
- AKT and Erk phosphorylation levels ([4]; KATO III): decreased
- FRS2 and PLCγ phosphorylation levels ([4]; KATO III): significantly decreased
- body weight change ([5]; during 21 days treatment, 15-45 mg/kg oral): no significant body weight change
- hematopoietic toxicity ([5]; end of 21 days treatment): absent
- pathological changes in harvested organs (H&E) ([5]; end of 21 days treatment): no pathological changes
- number of Edu-positive stained cells [6]: significantly decreased
- number of Edu-positive stained cells [7]: significantly decreased
- live cell numbers, prolonged administration [8]: suppressed
- live cell numbers, prolonged administration [9]: inhibited
- AUC(0-t) [10, 11]: 763 ± 50.8 ng·h/mL
- Cmax [10, 11]: 461 ± 47.8 ng/mL
- MRT [10, 11]: 1.64 ± 0.19 h
- half-life [10, 11]: 1.58 ± 0.29 h
- AUC(0-t) [10, 12]: 1450 ng·h/mL
- Cmax [10, 12]: 235 ± 77.8 ng/mL
- MRT [10, 12]: 4.49 ± 1.19 h
- Tmax [10, 12]: 2.67 ± 2.89 h
- half-life [10, 12]: 2.83 ± 0.37 h
- F% (oral relative bioavailability) ([10]; 30 mg/kg p.o): 19.00%
